Assay results from patent publication US8349571B2, “High content screening” (Cellaura Technologies Limited, priority 2004, dated 2013).
Blank lines part the entries; values can stand above or below the compound they belong to.

How the values were obtained:
Format in all cases: cell-based
human A1-AR [1] = target: T1, human A1-AR (Homo sapiens, UniProt P30542); assay: Live cell confocal imaging of fluorescent ligand binding in CHO-A1 cells; conditions: 100 nM BY630-ABEA
T1 construct: expressed in transfected cells; host or cells: CHO-K1 (CHO-A1fos)
T1 sequence (P30542 1-326): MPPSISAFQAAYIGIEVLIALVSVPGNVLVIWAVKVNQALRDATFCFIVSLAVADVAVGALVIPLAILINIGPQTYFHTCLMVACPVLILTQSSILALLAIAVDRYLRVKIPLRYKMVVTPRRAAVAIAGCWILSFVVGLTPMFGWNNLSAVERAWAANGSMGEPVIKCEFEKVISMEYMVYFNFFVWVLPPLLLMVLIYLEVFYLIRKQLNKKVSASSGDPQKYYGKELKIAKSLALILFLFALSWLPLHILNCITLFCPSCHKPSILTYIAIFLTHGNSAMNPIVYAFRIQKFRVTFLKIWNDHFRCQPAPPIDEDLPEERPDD
Procedure: (§1) Functional studies were performed in CHO-K1 cells expressing both the human A1-AR and a c-fos-pGL3 reporter vector (CHO-A1fos cells). […] Luciferase expression was quantified using a Luclite® kit according to manufacturer's instructions. Live cell confocal imaging was carried out on CHO-A1 cells or CHO cells expressing the A1-AR tagged on the C-terminus with a green fluorescent protein (CHO-A1Tpz).

human A1-AR [2] = target: T1, human A1-AR; assay: c-fos-pGL3 luciferase reporter functional study in CHO-A1fos cells
Procedure: as §1

[3] = target: T2, A1-AR tagged on the C-terminus with a green fluorescent protein (Homo sapiens, UniProt P30542); assay: Live cell confocal imaging in CHO cells expressing A1-AR tagged with green fluorescent protein (CHO-A1Tpz)
T2 construct: expressed in transfected cells; host or cells: CHO (CHO-A1Tpz)
T2 sequence (P30542 1-326): T1 sequence (P30542 1-326)
Procedure: as §1

effect of preincubation on BY630-ABEA membrane binding (human A1-AR [1]; DPCPX 1 μM, 30 min preincubation): substantially reduced
Compound: CCCn1c(=O)c2[nH]c(C3CCCC3)nc2n(CCC)c1=O [DPCPX, 8-cyclopentyl-1,3-dipropylxanthine, reference compound]
effect on the response to BY630-ABEA (human A1-AR [2]; 100 nM DPCPX, n=3): completely blocked the response to BY630-ABEA

specificity of ligand binding from overlaid red and green channel images (FIG. 4A) ([3]; 50 nM, 15′, CHO cells (A1-R-Topaz)): ligand binding is specific to receptors
Compound: XAC-BODIPY 630/650 [BODIPY-XAC]

specificity of ligand binding from overlaid red and green channel images (FIG. 4B) ([3]; 100 nM, 30′, CHO cells (A1-R-Topaz)): ligand binding is specific to receptors
time after which binding of ligand to the membrane was detectable (human A1-AR [1]; CHO-A1 cells, n=3): 5 min
time after which binding of ligand to the membrane was substantial (human A1-AR [1]; CHO-A1 cells, n=3): 30 min
pEC50, stimulation of luciferase expression (human A1-AR [2]; CHO-A1fos cells, 5 h agonist stimulation, mean s.e.mean): 6.76±0.18
Compound: NECA-BODIPY 630/650 [BY630-ABEA]
co-localisation of ligand fluorescence with tagged receptor ([3]; CHO-A1Tpz cells): co-localisation of ligand fluorescence at the membrane with that from the fluorescently tagged A1-AR
